Drawing on PubChem BioAssay AID260 (DTP/NCI, 2004), this text covers T/C for 12 compounds.

Several values for one entry are separate records, joined by “and”; a condition that tells them apart may be missing. Equal entries are not always repeated. Inconclusive results and toxic doses are left out.

In the assay the test system is CD2F1 mice, intracerebral L1210 leukemia, survival T/C. Kind of assay: NCI In Vivo Anticancer Drug Screen. Data for tumor model L1210 Leukemia (intracerebral) in CD2F1 (CDF1) mice. To be noted: higher = longer survival. As for the experimental part: The antitumor activity of compounds was measured in mice bearing transplantable tumors. Survival or tumor size were measured and the results are expressed as the measurement made in the treated group (T) divided by the measurement made in the vehicle treated control group (C). The tumor model used in this assay is L1210 Leukemia (intracerebral) in CD2F1 (CDF1) mice

Setting [1] is: endpoint: median survival time, dose: 1.0 mg/kg/injection, schedule: Q01DX009 (ip), vehicle: saline with Tween-80.
Setting [2] is: endpoint: median survival time, dose: 2.0 mg/kg/injection, schedule: Q01DX009 (ip), vehicle: saline with Tween-80.
Setting [3] is: endpoint: median survival time, dose: 4.0 mg/kg/injection, schedule: Q01DX009 (ip), vehicle: saline with Tween-80.

Turning to `O=C1c2c(O)ccc(O)c2C(=O)c2c(NCCNCCO)ccc(NCCNCCO)c21`, the T/C by setting is: (endpoint: median survival time, dose: 0.5 mg/kg/injection, schedule: Q01DX009 (ip), vehicle: saline with Tween-80) 122 % of control and 110 % of control; under setting [1], 120 % of control; under setting [2], 121 % of control; under setting [3], 105 % of control and 106 % of control.
Turning to `O=c1n(CC2CO2)c(=O)n(CC2CO2)c(=O)n1CC1CO1` (stereo unspecified), the T/C (endpoint: median survival time, dose: 16.4 mg/kg/injection, schedule: Q01DX009 (ip), vehicle: saline) was 123 % of control; the T/C (endpoint: median survival time, dose: 20.5 mg/kg/injection, schedule: Q01DX009 (ip), vehicle: saline) was 115 % of control; the T/C (endpoint: median survival time, dose: 40.0 mg/kg/injection, schedule: Q01DX009 (ip), vehicle: saline) is 152 % of control; the T/C (endpoint: median survival time, dose: 49.2 mg/kg/injection, schedule: Q01DX001 (ip), vehicle: saline) is 114 % of control; the T/C (endpoint: median survival time, dose: 50.0 mg/kg/injection, schedule: Q01DX009 (ip), vehicle: saline) was 110 % of control and 116 % of control; the T/C (endpoint: median survival time, dose: 61.4 mg/kg/injection, schedule: Q01DX001 (ip), vehicle: saline) was 114 % of control. Further, the T/C (endpoint: median survival time, dose: 70.0 mg/kg/injection, schedule: Q01DX009 (ip), vehicle: saline) was 109 % of control; the T/C (endpoint: median survival time, dose: 76.8 mg/kg/injection, schedule: Q01DX001 (ip), vehicle: saline) was 116 % of control; the T/C (endpoint: median survival time, dose: 80.0 mg/kg/injection, schedule: Q01DX009 (ip), vehicle: saline) was 107 % of control; the T/C (endpoint: median survival time, dose: 90.0 mg/kg/injection, schedule: Q01DX009 (ip), vehicle: saline) was 119 % of control; the T/C (endpoint: median survival time, dose: 180.0 mg/kg/injection, schedule: Q01DX009 (ip), vehicle: saline) is 117 % of control.
Regarding `O=C1C(=O)c2ccccc2C(O)=C1CC=C(Cl)Cl`, the T/C is, setting by setting: (endpoint: median survival time, dose: 10.0 mg/kg/injection, schedule: Q01DX005 (ip), vehicle: Klucel (hydroxypropylcellulose) (HPC)) 89 % of control and 96 % of control; (endpoint: median survival time, dose: 20.0 mg/kg/injection, schedule: Q01DX005 (ip), vehicle: Klucel (hydroxypropylcellulose) (HPC)) 95 % of control and 96 % of control; (endpoint: median survival time, dose: 40.0 mg/kg/injection, schedule: Q01DX005 (ip), vehicle: Klucel (hydroxypropylcellulose) (HPC)) 101 % of control and 109 % of control; (endpoint: median survival time, dose: 80.0 mg/kg/injection, schedule: Q01DX005 (ip), vehicle: Klucel (hydroxypropylcellulose) (HPC)) 109 % of control and 117 % of control.
As to `O=P1(N(CCCl)CCCl)NCCCO1` (stereo unspecified), the T/C is, setting by setting: (endpoint: median survival time, dose: 40.0 mg/kg/injection, schedule: Q01DX001 (ip), vehicle: saline) 100 % of control; (endpoint: median survival time, dose: 80.0 mg/kg/injection, schedule: Q01DX001 (ip), vehicle: saline) 104 % of control; (endpoint: median survival time, dose: 160.0 mg/kg/injection, schedule: Q01DX001 (ip), vehicle: saline) 112 % of control; (endpoint: median survival time, dose: 320.0 mg/kg/injection, schedule: Q01DX001 (ip), vehicle: saline) 105 % of control.
Regarding `CN(C)/N=N/c1nc[nH]c1C(N)=O`, the T/C (endpoint: mean survival time, dose: 20.0 mg/kg/injection, schedule: Q01DX007 (ip), vehicle: DMSO) was 100 % of control; the T/C (endpoint: mean survival time, dose: 20.0 mg/kg/injection, schedule: Q01DX007 (ip), vehicle: other) is 106 % of control; the T/C (endpoint: mean survival time, dose: 25.0 mg/kg/injection, schedule: Q01DX009 (ip), vehicle: saline) is 113 % of control; the T/C (endpoint: mean survival time, dose: 40.0 mg/kg/injection, schedule: Q01DX007 (ip), vehicle: DMSO) was 103 % of control; the T/C (endpoint: mean survival time, dose: 40.0 mg/kg/injection, schedule: Q01DX007 (ip), vehicle: other) is 106 % of control; the T/C (endpoint: mean survival time, dose: 50.0 mg/kg/injection, schedule: Q01DX009 (ip), vehicle: saline) was 111 % of control. Besides, the T/C (endpoint: mean survival time, dose: 80.0 mg/kg/injection, schedule: Q01DX007 (ip), vehicle: DMSO) was 116 % of control; the T/C (endpoint: mean survival time, dose: 80.0 mg/kg/injection, schedule: Q01DX007 (ip), vehicle: other) was 107 % of control; the T/C (endpoint: mean survival time, dose: 100.0 mg/kg/injection, schedule: Q01DX009 (ip), vehicle: saline) is 111 % of control; the T/C (endpoint: mean survival time, dose: 160.0 mg/kg/injection, schedule: Q01DX007 (ip), vehicle: DMSO) was 121 % of control; the T/C (endpoint: mean survival time, dose: 160.0 mg/kg/injection, schedule: Q01DX007 (ip), vehicle: other) is 121 % of control; the T/C (endpoint: mean survival time, dose: 320.0 mg/kg/injection, schedule: Q01DX007 (ip), vehicle: DMSO) is 103 % of control. Besides, the T/C reads like this: (endpoint: mean survival time, dose: 320.0 mg/kg/injection, schedule: Q01DX007 (ip), vehicle: other) 112 % of control; (endpoint: median survival time, dose: 16.0 mg/kg/injection, schedule: Q01DX005 (ip), vehicle: saline with Tween-80) 104 % of control; (endpoint: median survival time, dose: 32.0 mg/kg/injection, schedule: Q01DX005 (ip), vehicle: saline with Tween-80) 120 % of control; (endpoint: median survival time, dose: 64.0 mg/kg/injection, schedule: Q01DX005 (ip), vehicle: saline with Tween-80) 110 % of control; (endpoint: median survival time, dose: 128.0 mg/kg/injection, schedule: Q01DX005 (ip), vehicle: saline with Tween-80) 113 % of control.
As for `C[n+]1ccc(Nc2ccc(NC(=O)c3ccc(Nc4cc[n+](C)c5ccc(N)cc45)cc3N)cc2)cc1`, the T/C (endpoint: mean survival time, dose: 1.0 mg/kg/injection, schedule: Q01DX009 (ip), vehicle: saline) is 103 % of control; the T/C (endpoint: mean survival time, dose: 2.0 mg/kg/injection, schedule: Q01DX009 (ip), vehicle: saline) was 117 % of control; the T/C (endpoint: mean survival time, dose: 4.0 mg/kg/injection, schedule: Q01DX009 (ip), vehicle: saline) was 119 % of control; the T/C (endpoint: mean survival time, dose: 8.0 mg/kg/injection, schedule: Q01DX009 (ip), vehicle: saline) is 120 % of control; the T/C (endpoint: mean survival time, dose: 16.0 mg/kg/injection, schedule: Q01DX009 (ip), vehicle: saline) was 123 % of control.
For `COc1cccc2c1C(=O)c1c(O)c3c(c(O)c1C2=O)C[C@@](O)(/C(C)=N/NC(=O)c1ccccc1)C[C@@H]3OC1CC(N)C(O)C(C)O1` (stereo partly specified), the T/C is 114 % of control under setting [1]; 98 % of control and 104 % of control (endpoint: median survival time, dose: 1.0 mg/kg/injection, schedule: Q01DX009 (ip), vehicle: saline); 123 % of control under setting [2]; 103 % of control and 104 % of control (endpoint: median survival time, dose: 2.0 mg/kg/injection, schedule: Q01DX009 (ip), vehicle: saline); 123 % of control under setting [3]; 106 % of control and 110 % of control (endpoint: median survival time, dose: 4.0 mg/kg/injection, schedule: Q01DX009 (ip), vehicle: saline). Also, the T/C is 101 % of control (endpoint: median survival time, dose: 8.0 mg/kg/injection, schedule: Q01DX009 (ip), vehicle: saline with Tween-80); 92 % of control and 116 % of control (endpoint: median survival time, dose: 8.0 mg/kg/injection, schedule: Q01DX009 (ip), vehicle: saline); 89 % of control (endpoint: median survival time, dose: 16.0 mg/kg/injection, schedule: Q01DX009 (ip), vehicle: saline with Tween-80).
For the compound `O=C1C(NCCO)=C(N2CC2)C(=O)C(NCCO)=C1N1CC1`, the T/C was 111 % of control (endpoint: mean survival time, dose: 0.37 mg/kg/injection, schedule: Q01DX009 (ip), vehicle: saline); 119 % of control and 122 % of control (endpoint: mean survival time, dose: 1.5 mg/kg/injection, schedule: Q01DX009 (ip), vehicle: saline).
As for `C=CCN(C)N=Nc1ccc(C(N)=O)cc1`, the T/C was 98 % of control (endpoint: mean survival time, dose: 25.0 mg/kg/injection, schedule: Q01DX009 (ip), vehicle: Klucel (hydroxypropylcellulose) (HPC)); 108 % of control (endpoint: mean survival time, dose: 50.0 mg/kg/injection, schedule: Q01DX009 (ip), vehicle: Klucel (hydroxypropylcellulose) (HPC)); 118 % of control (endpoint: mean survival time, dose: 100.0 mg/kg/injection, schedule: Q01DX009 (ip), vehicle: Klucel (hydroxypropylcellulose) (HPC)); 118 % of control (endpoint: mean survival time, dose: 200.0 mg/kg/injection, schedule: Q01DX009 (ip), vehicle: Klucel (hydroxypropylcellulose) (HPC)).
Regarding `COC(=O)c1ccc(N=NN(C)C)cc1`, the T/C reads like this: (endpoint: median survival time, dose: 8.0 mg/kg/injection, schedule: Q01DX005 (ip), vehicle: saline + alcohol) 104 % of control; (endpoint: median survival time, dose: 16.0 mg/kg/injection, schedule: Q01DX005 (ip), vehicle: saline + alcohol) 106 % of control; (endpoint: median survival time, dose: 32.0 mg/kg/injection, schedule: Q01DX005 (ip), vehicle: saline + alcohol) 113 % of control; (endpoint: median survival time, dose: 64.0 mg/kg/injection, schedule: Q01DX005 (ip), vehicle: saline + alcohol) 120 % of control; (endpoint: median survival time, dose: 128.0 mg/kg/injection, schedule: Q01DX005 (ip), vehicle: saline + alcohol) 112 % of control.
As for `C[n+]1c2ccccc2nc2c(N)cc(N)cc21`, the T/C runs as follows: (endpoint: median survival time, dose: 4.0 mg/kg/injection, schedule: Q01DX005 (ip), vehicle: suspension in saline) 93 % of control and 98 % of control; (endpoint: median survival time, dose: 8.0 mg/kg/injection, schedule: Q01DX005 (ip), vehicle: suspension in saline) 102 % of control; (endpoint: median survival time, dose: 16.0 mg/kg/injection, schedule: Q01DX005 (ip), vehicle: suspension in saline) 96 % of control and 98 % of control; (endpoint: median survival time, dose: 32.0 mg/kg/injection, schedule: Q01DX005 (ip), vehicle: suspension in saline) 96 % of control and 97 % of control.
In the case of `N[C@@H](Cc1ccc(N(CCCl)CCCl)cc1)C(=O)O`, the T/C was 116 % of control (endpoint: mean survival time, dose: 1.25 mg/kg/injection, schedule: Q01DX009 (ip), vehicle: saline) and 120 % of control (endpoint: mean survival time, dose: 2.5 mg/kg/injection, schedule: Q01DX009 (ip), vehicle: saline).
